{
  "source": "PubChem BioAssay AID1963962",
  "about": "(Molecular Pharmacology Branch, DTP, NCI, 2024);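 further: spheroids exposed to agents for 7 days before read-out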;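 on viability, T/C: luminescence used as surrogate of cell viability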",
  "system": "967376-340-R-J2-PDC multicell spheroid viability",
  "experiment": "Anticancer human tumor 967376-340-R-J2-PDC patient-derived colon adenocarcinoma cell line growth inhibition [PI3K]",
  "settings": "for IC50: curve of first compound; for viability, T/C: stronger effect = lower value",
  "text": "Combinatorial screen of targeted agents with the PI3K inhibitors inavolisib, alpelisib, duvelisib, and copanlisib in multi-cell type tumor spheroids\nA high-throughput screen of multi-cell type tumor spheroids was designed to identify active combinations of targeted small molecules and PI3K pathway inhibitors. Complex spheroids include a stromal component modeled by human endothelial cells (HUVEC) and fibroblasts modeled by human mesenchymal stem cells (MSCs). The concentration ranges selected for each drug and investigational agent were based upon clinically achievable concentrations if the clinical Cmax of the agent was known.\nCompounds. The drugs and investigational agents: inavolisib (NSC800729), alpelisib (NSC765974), duvelisib (NSC772469), copanlisib (NSC816437), ipatasertib (NSC767898), afuresertib (NSC778305), talazoparib (NSC767125), sapanisertib (NSC764658), selumetinib (NSC741078), tovorafenib (DAY101, NSC766906), vemurafenib (NSC761431), ravoxertinib (NSC781343), sotorasib (NSC818433), MRTX1133 (NSC 836407), abemaciclib (NSC 768073), palbociclib (NSC758247), venetoclax (NSC 766270), SY5609 (NSC837396), enzalutamide (NSC755605), and darolutamide (NSC825331), were obtained from the National Cancer Institute (NCI) Developmental Therapeutics Program Chemical Repository. The FDA-approved anticancer drug set is available from the NCI Developmental Therapeutics Program. […] The stock solutions were prepared in dimethyl sulfoxide (DMSO, Sigma-Aldrich, St. Louis, MO, cat. D2650) at 800-fold the tested concentration and stored at -70 degrees C prior to their use. All drugs and investigational agents were tested over a range starting from a high concentration at or near the clinical Cmax and decreasing in half-log increments. If the clinical Cmax for an agent had not been determined, the highest concentration tested was 10 microM.\nCell Culture. All cells were maintained in an incubator at 37 degrees C and 5% CO2 with 95% humidity. The PDC lines were cultured according to standard operating procedures established by the NCI PDMR (https://pdmr.cancer.gov/sops/default.htm). All PDCs were thawed and cultured in Matrigel-coated flasks prepared with a working solution of 1X Ham's F-12 nutrient mix, without supplementation (Invitrogen, Waltham, MA, cat. 11765054), 100 U/mL penicillin-streptomycin (Invitrogen, cat. 15140122), and 2.5% Matrigel (Corning Inc., Corning, NY, cat. 354248) for the first three passages. The 354836-022-R-J1-PDC, 475296-252-R-J1-PDC, and 997726-040-R-J2-PDC lines were cultured in 6A media, which includes advanced DMEM/F-12 (Thermo Fisher Scientific, cat. 12634028), 10 mM HEPES (Thermo Fisher Scientific, cat. 15630080), 1X GlutaMAX supplement (Thermo Fisher Scientific, cat. 35050061), 0.1 mg/mL primocin (InvivoGen, San Diego, CA, cat. ant-pm-2), 10% defined fetal bovine serum, heat inactivated (HyClone Laboratories Inc., Logan, UT, cat. SH30070.03HI), 50% L-WRN conditioned media (ATCC, cat. CRL-3276), 1.25 mM N-Acetyl-L-cysteine (Sigma-Aldrich, cat. A9165), 10 mM nicotinamide (Sigma-Aldrich, cat. N0636), 1X B-27 supplement (Thermo Fisher Scientific, cat. 17504044), 1X N-2 supplement (Thermo Fisher Scientific, cat. 17502048), and 10 microM Y-27632 dihydrochloride (Tocris Bioscience, Bristol, United Kingdom, cat. 1254). The 624824-186-R-J2-PDC line was cultured in 6C/Colon 1B media, which includes all 6A media components plus 50 ng/mL human EGF recombinant protein (Thermo Fisher Scientific, cat. PHG0311). […]",
  "data": [
    {"smiles": "CC(C)n1nc(-c2ccc3oc(N)nc3c2)c2c(N)ncnc21", "note": "+ CC(Nc1ccc2c(c1)OCCn1cc(N3C(=O)OCC3C(F)F)nc1-2)C(N)=O", "values": [
      {"measurement": "IC50", "setting": "second compound 0.00316 µM", "value": "> 0.1", "unit": "µM"},
      {"measurement": "IC50", "setting": "second compound 0.01 µM", "value": "> 0.1", "unit": "µM"},
      {"measurement": "IC50", "setting": "second compound 0.0316 µM", "value": 0.0719, "unit": "µM"},
      {"measurement": "IC50", "setting": "second compound 0.1 µM", "value": 0.0665, "unit": "µM"},
      {"measurement": "IC50", "setting": "second compound 0.316 µM", "value": 0.0207, "unit": "µM"},
      {"measurement": "IC50", "setting": "second compound 1 µM", "value": 0.0369, "unit": "µM"},
      {"measurement": "viability, T/C", "setting": "second compound 0.00316 µM, first compound 0.000316 µM", "value": 82.3, "unit": "%"},
      {"measurement": "viability, T/C", "setting": "second compound 0.00316 µM, first compound 0.001 µM", "value": 69.7, "unit": "%"},
      {"measurement": "viability, T/C", "setting": "second compound 0.00316 µM, first compound 0.00316 µM", "value": 69.4, "unit": "%"},
      {"measurement": "viability, T/C", "setting": "second compound 0.00316 µM, first compound 0.01 µM", "value": 76.4, "unit": "%"},
      {"measurement": "viability, T/C", "setting": "second compound 0.00316 µM, first compound 0.0316 µM", "value": 73.1, "unit": "%"},
      {"measurement": "viability, T/C", "setting": "second compound 0.00316 µM, first compound 0.1 µM", "value": 51.9, "unit": "%"},
      {"measurement": "viability, T/C", "setting": "second compound 0.01 µM, first compound 0.000316 µM", "value": 106, "unit": "%"},
      {"measurement": "viability, T/C", "setting": "second compound 0.01 µM, first compound 0.001 µM", "value": 90.1, "unit": "%"},
      {"measurement": "viability, T/C", "setting": "second compound 0.01 µM, first compound 0.00316 µM", "value": 67.3, "unit": "%"},
      {"measurement": "viability, T/C", "setting": "second compound 0.01 µM, first compound 0.01 µM", "value": 68.7, "unit": "%"},
      {"measurement": "viability, T/C", "setting": "second compound 0.01 µM, first compound 0.0316 µM", "value": 68.1, "unit": "%"},
      {"measurement": "viability, T/C", "setting": "second compound 0.01 µM, first compound 0.1 µM", "value": 43.3, "unit": "%"},
      {"measurement": "viability, T/C", "setting": "second compound 0.0316 µM, first compound 0.000316 µM", "value": 81.1, "unit": "%"},
      {"measurement": "viability, T/C", "setting": "second compound 0.0316 µM, first compound 0.001 µM", "value": 87, "unit": "%"},
      {"measurement": "viability, T/C", "setting": "second compound 0.0316 µM, first compound 0.00316 µM", "value": 65.4, "unit": "%"},
      {"measurement": "viability, T/C", "setting": "second compound 0.0316 µM, first compound 0.01 µM", "value": 74.4, "unit": "%"},
      {"measurement": "viability, T/C", "setting": "second compound 0.0316 µM, first compound 0.0316 µM", "value": 60.5, "unit": "%"},
      {"measurement": "viability, T/C", "setting": "second compound 0.0316 µM, first compound 0.1 µM", "value": 45.2, "unit": "%"},
      {"measurement": "viability, T/C", "setting": "second compound 0.1 µM, first compound 0.000316 µM", "value": 67.3, "unit": "%"},
      {"measurement": "viability, T/C", "setting": "second compound 0.1 µM, first compound 0.001 µM", "value": 79.8, "unit": "%"},
      {"measurement": "viability, T/C", "setting": "second compound 0.1 µM, first compound 0.00316 µM", "value": 91.5, "unit": "%"},
      {"measurement": "viability, T/C", "setting": "second compound 0.1 µM, first compound 0.01 µM", "value": 69.5, "unit": "%"},
      {"measurement": "viability, T/C", "setting": "second compound 0.1 µM, first compound 0.0316 µM", "value": 56.9, "unit": "%"},
      {"measurement": "viability, T/C", "setting": "second compound 0.1 µM, first compound 0.1 µM", "value": 46.3, "unit": "%"},
      {"measurement": "viability, T/C", "setting": "second compound 0.316 µM, first compound 0.000316 µM", "value": 57.7, "unit": "%"},
      {"measurement": "viability, T/C", "setting": "second compound 0.316 µM, first compound 0.001 µM", "value": 61.9, "unit": "%"},
      {"measurement": "viability, T/C", "setting": "second compound 0.316 µM, first compound 0.00316 µM", "value": 54.6, "unit": "%"},
      {"measurement": "viability, T/C", "setting": "second compound 0.316 µM, first compound 0.01 µM", "value": 64.7, "unit": "%"},
      {"measurement": "viability, T/C", "setting": "second compound 0.316 µM, first compound 0.0316 µM", "value": 44.3, "unit": "%"},
      {"measurement": "viability, T/C", "setting": "second compound 0.316 µM, first compound 0.1 µM", "value": 33.1, "unit": "%"},
      {"measurement": "viability, T/C", "setting": "second compound 1 µM, first compound 0.000316 µM", "value": 53.9, "unit": "%"},
      {"measurement": "viability, T/C", "setting": "second compound 1 µM, first compound 0.001 µM", "value": 54.8, "unit": "%"},
      {"measurement": "viability, T/C", "setting": "second compound 1 µM, first compound 0.00316 µM", "value": 63.8, "unit": "%"},
      {"measurement": "viability, T/C", "setting": "second compound 1 µM, first compound 0.01 µM", "value": 47.5, "unit": "%"},
      {"measurement": "viability, T/C", "setting": "second compound 1 µM, first compound 0.0316 µM", "value": 54, "unit": "%"},
      {"measurement": "viability, T/C", "setting": "second compound 1 µM, first compound 0.1 µM", "value": 38.4, "unit": "%"}
    ]}
  ]
}
